Results as given in article PMC12386606, “Evaluation of the In Vitro Blood–Brain Barrier Transport of Ferula persica L. Bioactive Compounds” (International Journal of Molecular Sciences, 2025).
Where “and” joins values, the source holds several entries; their conditions need not be identical. Equal values may be shown once. Where a name gives a salt, the structure may show the parent alone.

Tests used:
HBMEC cells = assay: Blood–brain barrier transport study in HBMEC Transwell monolayer; details: for AerExt Te (%) ± SD 2 h / AerExt Te (%) ± SD 4 h / AerExt Te (%) ± SD 24 h: AerExt 40 µg mL^−1 apical; for AerExt Te (%) ± SD 2 h / AerExt Te (%) ± SD 4 h / AerExt Te (%) ± SD 24 h / RootExt Te (%) ± SD 2 h / RootExt Te (%) ± SD 4 h / RootExt Te (%) ± SD 24 h: n.q. = not quantified in the basolateral compartment; for RootExt Te (%) ± SD 2 h / RootExt Te (%) ± SD 4 h / RootExt Te (%) ± SD 24 h: RootExt 20 µg mL^−1 apical; for abundance in the apical compartment relative to the basolateral compartment (times higher) / Te of newly formed sulfated metabolites: after AerExt 40 µg mL^−1 treatment of HBMEC; for Te of newly formed sulfated metabolites: tentatively identified metabolites; for AerExt Te (%) ± SD 24 h / RootExt Te (%) ± SD 24 h / Te of newly formed sulfated metabolites: 24 h; for crossing of the HBMEC-BBB: AerExt 40 µg mL^−1 / RootExt 20 µg mL^−1, 2, 4, 24 h
Procedure: After the toxicity evaluation, the HBMEC cell line was also used as a simplified in vitro model of the BBB endothelium. Cells were seeded at a density of 1.6 × 10^5 cells/cm^2 in 12-well Transwell® plates (Corning Costar Corp., Corning, USA) with a pore diameter of 0.4 μm, pre-coated with type I rat tail collagen (100 μg mL^−1) [55]. The culture medium was renewed every 2 days until a monolayer cell structure was formed (see Supplementary Figure S2), and transport experiments were initiated after 10 days. In transport experiments, the medium in the apical (upper) compartment of the Transwell system was removed, and 0.5 mL of AerExt or RootExt at a concentration of 40 μg mL^−1 and 20 μg mL^−1, respectively, was added to these compartments (applied in duplicate). Also, a medium containing 0.4% (v/v) ethanol was used as control group. The basolateral (lower) compartments were filled with 1.5 mL of fresh culture medium. The cells were incubated under these conditions for 2, 4, and 24 h.
At the end of the incubation periods, media samples were collected from both chambers and lyophilized using a freeze-drying system from Martin Christ (Osterode am Harz, Germany). The samples were stored at −80 °C until analysis. The collected samples were subjected to chemical analyses to evaluate the ability of bioactive compounds contained in the extracts to pass through the cell monolayer.
The transport efficiency (Te) of bioactive substances was calculated based on Equation (3), described by [56]:Te (%) = CLower/CUpper × 100(3)
This calculation was performed to understand whether the compound crosses the cell layer and how efficiently it is transported.
For this purpose, 0.2 mL of cold water (H2O) was added to the samples, and the samples were vortexed for 10 s. Then, 0.8 mL of cold methanol was added and vortexed again for 10 s. Then, the mixture was centrifuged at 14,000 rpm for 5 min, and the supernatant was carefully transferred to a 1.5 mL Eppendorf tube and dried in a SpeedVac device at 40 °C and 13 bar pressure. Finally, the dried samples were resuspended in 25 μL of pure ethanol for their subsequent analysis.
For HPLC-Q-TOF MS/MS analysis, aliquots of 2 μL were injected into an HPLC model 1290 coupled to a Q-TOF series 6540 (Agilent Technologies, Waldbronn, Germany). For GC-Q-TOF MS analysis, aliquots of 1 μL were injected with a split ratio of 1:10 into a GC model 7890B coupled to a Q-TOF series 7200 (Agilent Technologies, Waldbronn, Germany). The HPLC-MS and GC-MS chromatograms were processed using the Agilent Mass Hunter Qualitative software (version B.10.0) to verify the retention time and exact mass of the compounds previously reported by us [25] and to extract their peak area to calculate the BBB permeability.

[1] = oil/water partition coefficient; Table 1; ref PubChem; cited from earlier work
[2] = Parallel artificial membrane permeability assay for the blood–brain barrier (PAMPA-BBB); details: for AerExt log Pe: compound within AerExt donor solution; for AerExt log Pe / RootExt log Pe: 37 °C, 4 h, PBS pH 7.4, n.q. = not quantified in the acceptor plate; for RootExt log Pe: compound within RootExt donor solution; for AerExt Cross BBB Potential: compound within AerExt; for AerExt Cross BBB Potential / RootExt Cross BBB Potential: PAMPA-BBB; for RootExt Cross BBB Potential: compound within RootExt
Procedure: The permeability of bioactive compounds from AerExt and RootExt across the BBB was assessed using the PAMPA-BBB assay, following the methodology described by [11]. Firstly, the BBB solution was prepared by dissolving 8 mg of PBL and 4 mg of cholesterol in 600 μL of n-dodecane. The initial donor solution was prepared by mixing 1 mL of AerExt or RootExt (at 10 mg mL^−1 in EtOH) with 1 mL of buffer (PBS, pH = 7.4, 10 mM). The filter membrane of the donor plate was coated with 5 μL of BBB solution. The acceptor plate was filled with 350 μL of buffer, and the donor plate was carefully placed on top of the acceptor plate to form a “sandwich-like” assembly. Subsequently, 350 μL of the donor solution was added to the donor plate, which was then covered and incubated at 37 °C for 4 h in the dark. After the incubation time, 300 μL of the solution was collected from each plate, transferred into separate vials, and evaporated using a SpeedVac system at 40 °C under 13 mbar pressure. The dried acceptor and donor solutions were dissolved in 50 μL of pure EtOH before being subjected to HPLC-Q-TOF-MS/MS and GC-Q-TOF-MS analysis. Permeability (Pe) across the PAMPA-BBB of the bioactive compound was calculated according to Equation (1) [54], with modifications in concentration rates.Pe = −ln[1 − CA(t)/Cequilibrium]/(A × (1/VD + 1/VA) × t)(1)
Cequilibrium was calculated according to Equation (2):Cequilibrium = [CD(t) × VD + CA(t) × VA]/(VD + VA)(2)
The HPLC-MS and GC-MS chromatograms were processed using the Agilent Mass Hunter Qualitative software (version B.10.0) to verify the retention time and exact mass of the compounds previously reported by us [25] and to extract their peak area to calculate the BBB permeability.

## C=C(C)[C@@H]1CC[C@@]2(C)CCC(=O)C(C)=C2C1 [α-cyperone]
HBMEC cells
  AerExt Te (%) ± SD 2 h: 12.2 ± 0.1%
  AerExt Te (%) ± SD 4 h: 25.1 ± 1.4%
  AerExt Te (%) ± SD 24 h: 56.5 ± 6.5%
  RootExt Te (%) ± SD 2 h: 15.4 ± 2.6%
  RootExt Te (%) ± SD 4 h: 20.1 ± 12.0%
  RootExt Te (%) ± SD 24 h: 187% and 187.3 ± 12.5%
[1]
  log p: 3.8

## COc1ccc(O)c(C=O)c1 [2-hydroxy-5-methoxybenzaldehyde]
HBMEC cells
  AerExt Te (%) ± SD 2 h: 18.8 ± 2.3%
  AerExt Te (%) ± SD 4 h: 9.1 ± 1.2%
  AerExt Te (%) ± SD 24 h: 11.0 ± 1.3%
  RootExt Te (%) ± SD 2 h: 31.8 ± 8.0%
  RootExt Te (%) ± SD 4 h: 36.3 ± 10.9%
  RootExt Te (%) ± SD 24 h: 164.8 ± 21.0%
[1]
  log p: 1.8

## CC1=C2CCC(C)C2CC(C(C)(C)O)CC1 (stereo not drawn) [Bulnesol]
[1]
  log p: 3.8
[2]
  AerExt log Pe: n.q.
  RootExt log Pe: n.q.

## CC1=C2C[C@H](C(C)(C)O)CC[C@@]2(C)CCC1 [γ-eudesmol]
[1]
  log p: 3.7
[2]
  AerExt Cross BBB Potential: + (log Pe < −6.5)
  RootExt Cross BBB Potential: + (log Pe < −6.5)

## O=C(/C=C/c1ccc(O)c(O)c1)OC1C(O)CC2(O)CC1OC2=O (stereo not drawn) [4-caffeoylquinic acid lactone]
[1]
  log p: 0.4
[2]
  AerExt Cross BBB Potential: + (log Pe < −6.5)

## CC(C)=CCC[C@](C)(O)[C@@H]1CC=C(C)CC1 [α-bisabolol]
[1]
  log p: 1.3
[2]
  AerExt Cross BBB Potential: + (log Pe < −6.5)
  RootExt Cross BBB Potential: + (log Pe < −6.5)

## COc1cc2ccc(=O)oc2c(O)c1OC [Fraxidin]
[1]
  log p: 1.5
[2]
  AerExt log Pe: −4.82
  RootExt log Pe: −4.81

## apigenin sulfate
HBMEC cells
  abundance in the apical compartment relative to the basolateral compartment (times higher): ~40 times
  Te of newly formed sulfated metabolites: 2.7%

## CC1=CCC[C@]2(C)CCC(=C(C)C)C[C@@H]12 [Selina-3,7(11)-diene]
[1]
  log p: 4.4
[2]
  AerExt log Pe: n.q.
  RootExt log Pe: n.q.

## c1ccc2c(c1)[nH]c1cnccc12 [Norharman]
HBMEC cells
  AerExt Te (%) ± SD 2 h: 2.3 ± 0.1%
  AerExt Te (%) ± SD 4 h: 5.3 ± 1.4%
  AerExt Te (%) ± SD 24 h: 4.1 ± 0.2%
[1]
  log p: 3.2

## CC(=O)OC(C)(C)[C@@H]1CC[C@H](C)C2=C(C1)[C@@H](C)CC2 [Guaiol acetate]
[1]
  log p: 3.6
[2]
  AerExt log Pe: n.q.
  RootExt log Pe: −5.05

## C[C@@H]1CCCC2=CC[C@@H]3[C@@H](C3(C)C)[C@]21C [(–)-aristolene]
[1]
  log p: 4.7
[2]
  AerExt log Pe: n.q.
  RootExt log Pe: n.q.

## C[C@@H]1CC[C@H]2C(C(=O)O)=C[C@@H]3[C@@H](O)C(C)(C)C[C@@]132 [Pentalenic acid]
[1]
  log p: 2.7

## O=Cc1ccc(O)c(O)c1 [Protocatechuic aldehyde]
HBMEC cells
  crossing of the HBMEC-BBB: could not cross the HBMEC-BBB
  AerExt Te (%) ± SD 2 h: n.q.
  AerExt Te (%) ± SD 4 h: n.q.
  AerExt Te (%) ± SD 24 h: n.q.
  RootExt Te (%) ± SD 2 h: n.q.
  RootExt Te (%) ± SD 4 h: n.q.
[1]
  log p: 1.3

## O=c1cc(-c2ccc(O)c(O)c2)oc2cc(O)cc(O)c12 [Luteolin]
HBMEC cells
  crossing of the HBMEC-BBB: could not cross the HBMEC-BBB
[2]; PAMPA, pH 7.4
  Papp at 4 h: 26.3 ×10⁻⁶ cm/s

## Cc1ncsc1CCO [4-methyl-5-thiazoleethanol]
[1]
  log p: 0.8

## C=C1CC[C@H]2O[C@]2(C)CC[C@@H]2[C@@H]1CC2(C)C [(–)-caryophyllene oxide]
HBMEC cells
  AerExt Te (%) ± SD 2 h: 4.3 ± 0.1%
  AerExt Te (%) ± SD 4 h: 8.6 ± 0.6%
  AerExt Te (%) ± SD 24 h: 8.8 ± 0.7%
  RootExt Te (%) ± SD 2 h: n.q.
  RootExt Te (%) ± SD 4 h: n.q.
  RootExt Te (%) ± SD 24 h: n.q.
[1]
  log p: 3.6

## COc1cc2ccc(=O)oc2c(OC)c1O [Isofraxidin]
HBMEC cells
  AerExt Te (%) ± SD 2 h: n.q.
  AerExt Te (%) ± SD 4 h: n.q.
  AerExt Te (%) ± SD 24 h: n.q.
  RootExt Te (%) ± SD 2 h: n.q.
  RootExt Te (%) ± SD 4 h: n.q.
  RootExt Te (%) ± SD 24 h: 30.5 ± 6.6%
[1]
  log p: 1.5

## COc1cc(/C=C/C(=O)O)ccc1OS(=O)(=O)O [ferulic acid sulfate]
HBMEC cells
  abundance in the apical compartment relative to the basolateral compartment (times higher): ~40 times
  Te of newly formed sulfated metabolites: 2.3%

## CC12CCC3C(CC3(C)C)C(C)(CCC1=O)O2 (stereo not drawn) [3,7-epoxycaryophyllan-6-One]
[1]
  log p: 2.8

## CCOC(=O)/C=C/c1ccc(O)c(O)c1 [Ethyl caffeate]
[1]
  log p: 2.6
